Reference: patent US20220265762A1, “COMPOSITION, COMPRISING TMEM176B OR AN EXPRESSION OR ACTIVITY REGULATOR THEREOF AS AN ACTIVE INGREDIENT, FOR PREVENTION OR TREATMENT OF DEGENERATIVE BRAIN DISEASE” (AMYLOID SOLUTION INC., priority 2019, published 2022)

Assays:
astrocyte [1] = assay: Phagocytic activity of astrocyte with overexpressed TMEM176B on FAM-labeled amyloid-beta oligomer; type: cell-based; conditions: virus-inoculated astrocytes treated with inhibitor at 0, 10, 50 μM; FIG. 3
Procedure: A TMEM176B-infected astrocyte and a normal astrocyte were separately cultured into wells of a 96-well black cell culture plate (by SPL) at a density of 50,000 cells per well, the plate using PriGrow IV medium containing 10% FBS (by GIBCO), penicillin/streptomycin (by Thermo), 10 ng/mL of human EGF (by Abm), and L-glutamine (by Abm). Here, only the astrocytes inoculated with the TMEM176B-adeno-associated virus were treated with the TMEM176B inhibitor at concentrations of 0 μM, 10 μM, and 50 μM, and then stabilized by incubation at 37° C. in a 5% CO2 incubator for 18 to 24 hours. FAM-labeled amyloid-beta (by Anaspec) was dissolved in cold PBS at a concentration of 5 μM, blocked from light, and stored in a refrigerator at 4° C. for 24 hours to prepare an oligomer. […] After 1 minute, trypan blue was removed, and the phagocytized oligomeric amyloid-beta was measured at an excitation wavelength of 485 nm/emission wavelength of 535 nm using a microplate reader capable of measuring fluorescence. […] After the incubation was completed, a washing process was performed thereon once with PBS, and the stained nuclei were measured at an excitation wavelength of 360 nm/emission wavelength of 465 nm using a microplate reader capable of measuring fluorescence.

astrocyte [2] = assay: Phagocytic activity of astrocyte on FAM-labeled amyloid-beta oligomer after TMEM176B inhibitor treatment; type: cell-based; conditions: inhibitor at 0, 3.703, 11.11, 33.33, 100 μM, FIG. 1
Procedure: In detail, BAYK8644 (by Merck) was used as a TMEM176B inhibitor, a method of confirming phagocytic activity of an astrocyte (by Abm) after treatment with the inhibitor was performed as follows. The astrocyte was cultured in a 96-well black cell culture plate (by SPL) using a PriGrow IV medium containing 10% FBS (by GIBCO), penicillin/streptomycin (by Thermo), human EGF 10 ng/mL (by Abm), and L-glutamine (by Abm), and incubation thereof was started at a density of 50,000 cells per well. Here, the TMEM176B inhibitor was treated at concentrations of 0 μM, 3.703 μM, 11.11 μM, 33.33 μM, and 100 μM, and the then the cells were stabilized by incubation at 37° C. in a 5% CO2 incubator for 18 to 24 hours. Fluorescent FAM-labeled amyloid-beta was dissolved in cold PBS (by Anaspec) at a concentration of 5 μM, blocked from light, and stored in a refrigerator at 4° C. for 24 hours to prepare amyloid-beta in oligomers. […] After 1 minute, trypan blue was removed by suction, and the phagocytized oligomeric amyloid-beta was measured at an excitation wavelength of 485 nm/emission wavelength of 535 nm using a microplate reader capable of measuring fluorescence. […] After the incubation was completed, a washing process was performed thereon once with PBS, and the stained nuclei were measured at an excitation wavelength of 360 nm/emission wavelength of 465 nm.

**Q.** Which “phagocytosis of oligomeric amyloid-beta” value (astrocyte [1]) does the source give for COC(=O)C1=C(C)NC(C)=C([N+](=O)[O-])C1c1ccccc1C(F)(F)F (centres unmarked) [TMEM176B inhibitor, BAYK8644] here?
**A.** Its value is “decreased in a concentration-dependent manner”.

**Q.** What about the “phagocytosis function on the amyloid-beta oligomer” value (astrocyte [2]) of the same compound?
**A.** Its value is “decreased the phagocytosis function”.
